Results from PMC9019100, “Development of NanoLuc-targeting protein degraders and a universal reporter system to benchmark tag-targeted degradation platforms” (Nature Communications, 2022).
Values joined by “and” are separate entries in the source; they are usually repeats but may differ in a detail not shown here. Equal values may be shown once. Read-outs that look alike come from different tables or passages of the source.

Experiments:
wild-type HT29 cells = experiment: Necroptosis assay (PI exclusion, flow cytometry), wild-type HT29 cells, TNF+SM+IDN; assay type: cell-based, human; conditions: Unt (no death stimulus); sheet S5F
In short: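 HT29 cells were pretreated 5 h with 500 nM degrader or DMSO, then stimulated 24 h with TNF (100 ng/mL), Smac mimetic compound A (500 nM–1 µM) and emricasan (IDN, 5 µM). Cell death was scored by flow cytometry as PI uptake (10 μg/mL PI, 10,000 events/sample), N = 3 replicates.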

[1] = tested on: MLKL^−/− HT29 cells expressing untagged MLKL; assay type: cell-based; conditions: MLKL-/- + MLKL, independent experiments
Experimental: Cell death was assessed by flow cytometric analysis of PI exclusion. […] Cell death was assessed by flow cytometric analysis of PI exclusion. […] Cell death was assessed by flow cytometric analysis of PI exclusion. e N = 4, f N = 3 independent experiments (symbols), EB represent mean ± SD. g Western from MLKL^−/−CASP8^−/− HT29 cells stably expressing the doxycycline-inducible C-terminal fusion protein, MLKL-NanoLuc (MLKL-NLuc) and constitutively expressing the C-terminal fusion protein caspase-8-FKBP^F36V. […] Cell death was assessed using an IncuCyte and Cytotox-Red uptake. N = 3 independent experiments, one representative experiment shown, EB represent mean ± SD.
Degrader compounds or a DMSO vehicle control were added for 5 h, as stated in the Fig. legends. Cells were detached using Trypsin-EDTA (Merck) and resuspended in cell supernatants containing 10 μg/mL propidium iodide (PI). PI exclusion analysis was performed using an LSR II flow cytometer (Becton Dickinson, NJ) with 10,000 single-cell events per sample. Flow cytometry data were analysed using WEASEL version 2.7 software (Frank Battye).

[2] = molecular target: T1, Halo-EGFP-NanoLuc-FKBP^F36V (H-E-N-F) fusion protein (UniProt P0A3G2+P62942+Q9GV45, A155T/A167V/A172T/A224E/A31E/A60N/A81I/C128F/C176G/D78G/E160K/E257K/F37V/F95D/H272N/I117V/K175M/K195N/K70R/L47V/L54V/L88M/L99Q/M102K/N193R/N227D/P142E/P291S/Q151K/Q38R/Q45L/S2A/S58T/T264A/V71I/Y165I/Y273L/Y87F); assay type: cell-based; set-up: expressed in transfected cells; host or cells: immortalized mouse dermal fibroblasts (iMDFs), ubiquitin promoter, constitutive; conditions: 500 nM
Target sequence in this assay (P0A3G2 other isoform, or with tags, fused parts or gaps with the stated changes): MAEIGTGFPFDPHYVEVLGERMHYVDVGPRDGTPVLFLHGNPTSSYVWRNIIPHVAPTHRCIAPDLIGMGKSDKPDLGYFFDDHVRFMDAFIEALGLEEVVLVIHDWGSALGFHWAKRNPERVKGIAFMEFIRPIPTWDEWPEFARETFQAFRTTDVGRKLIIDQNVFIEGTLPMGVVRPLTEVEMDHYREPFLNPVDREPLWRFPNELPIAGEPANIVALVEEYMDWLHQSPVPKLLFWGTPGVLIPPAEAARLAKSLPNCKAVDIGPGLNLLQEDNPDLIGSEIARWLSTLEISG
Target sequence in this assay (Q9GV45 other isoform, or with tags, fused parts or gaps with the stated changes): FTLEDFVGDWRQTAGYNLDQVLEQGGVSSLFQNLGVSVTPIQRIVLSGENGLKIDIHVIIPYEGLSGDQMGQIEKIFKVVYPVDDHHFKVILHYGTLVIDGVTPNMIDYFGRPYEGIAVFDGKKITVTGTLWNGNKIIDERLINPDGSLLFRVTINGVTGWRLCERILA
Target sequence in this assay (P62942 whole entry F37V, the tested form may be a part): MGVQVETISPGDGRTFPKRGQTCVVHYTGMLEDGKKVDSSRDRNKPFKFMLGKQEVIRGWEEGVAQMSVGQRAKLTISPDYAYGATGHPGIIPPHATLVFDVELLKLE

[3] = tested on: MLKL^−/−CASP8^−/− HT29 cells expressing MLKL-NLuc and caspase-8-FKBP^F36V; conditions: TNF+SM
[4] = molecular target: T1, Halo-EGFP-NanoLuc-FKBP^F36V (H-E-N-F) fusion protein; assay type: cell-based; conditions: replicate wells; for Blank corrected Raw Data (470-80): +dox, PROTAC 500nM
Target sequence in this assay (Q9GV45 other isoform, or with tags, fused parts or gaps with the stated changes): as the sequence (Q9GV45 other isoform, or with tags, fused parts or gaps with the stated changes) above
Target sequence in this assay (P0A3G2 other isoform, or with tags, fused parts or gaps with the stated changes): as the sequence (P0A3G2 other isoform, or with tags, fused parts or gaps with the stated changes) above
Target sequence in this assay (P62942 whole entry F37V, the tested form may be a part): as the sequence (P62942 whole entry F37V, the tested form may be a part) above

CCc1cccc(N(CC)C(=O)Cn2c(C(=O)NC3CCC(C(=O)NCCCCCCCC(=O)NCCCCNc4cccc5c4C(=O)N(C4CCC(=O)NC4=O)C5=O)CC3)cc3ccccc32)c1 (stereo not shown) [NC4]
viable cells (PI exclusion) (wild-type HT29 cells): 70.2 and 66.8 and 70.5
Live cells (%PI negative) after TNF+911+zVAD ([1]; 3.9nM): 6.4 and 6.9 and 5.3
Live cells (%PI negative) after TNF+911+zVAD ([1]; 7.8nM): 6.6 and 6 and 6.3
Live cells (%PI negative) after TNF+911+zVAD ([1]; 31.25nM): 6.5 and 6 and 7.1
Live cells (%PI negative) after TNF+911+zVAD ([1]; 62.5nM): 6 and 5.5 and 7.5
Live cells (%PI negative) after TNF+911+zVAD ([1]; 250nM): 4.9 and 6.4 and 6.1
Live cells (%PI negative) after TNF+911+zVAD ([1]; 500nM): 4 and 4.7 and 6.1
Live cells (%PI negative) after TNF+911+zVAD ([1]; 1000nM): 5.9 and 5.2 and 6.1
time up to which degradation was seen, degrader left in the medium ([2]; 5, 24 or 48 h): up to 24 h
time up to which degradation was maintained, degrader removed at 5 h ([2]; 24 or 48 h after removal): not maintained
Cytotox-Red uptake (cell death), IncuCyte ([3]; elapsed 0 h): 176
Cytotox-Red uptake (cell death), IncuCyte ([3]; elapsed 0.5 h): 196.812
Cytotox-Red uptake (cell death), IncuCyte ([3]; elapsed 1 h): 269.75
Cytotox-Red uptake (cell death), IncuCyte ([3]; elapsed 2 h): 726.062
Cytotox-Red uptake (cell death), IncuCyte ([3]; elapsed 3 h): 1441.19
Cytotox-Red uptake (cell death), IncuCyte ([3]; elapsed 4 h): 2153.69
Cytotox-Red uptake (cell death), IncuCyte ([3]; elapsed 5 h): 2734
Cytotox-Red uptake (cell death), IncuCyte ([3]; elapsed 6 h): 3193.62
Cytotox-Red uptake (cell death), IncuCyte ([3]; elapsed 6.5 h): 3375.81
Cytotox-Red uptake (cell death), IncuCyte ([3]; elapsed 7 h): 3569.31
Cytotox-Red uptake (cell death), IncuCyte ([3]; elapsed 7.5 h): 3696.25
Cytotox-Red uptake (cell death), IncuCyte ([3]; elapsed 8 h): 3846.56
Cytotox-Red uptake (cell death), IncuCyte ([3]; elapsed 9 h): 4053
Cytotox-Red uptake (cell death), IncuCyte ([3]; elapsed 9.5 h): 4125.31
Cytotox-Red uptake (cell death), IncuCyte ([3]; elapsed 10 h): 4221.25
Cytotox-Red uptake (cell death), IncuCyte ([3]; elapsed 10.5 h): 4287.44
Cytotox-Red uptake (cell death), IncuCyte ([3]; elapsed 11 h): 4360
Cytotox-Red uptake (cell death), IncuCyte ([3]; elapsed 12 h): 4474.25
Cytotox-Red uptake (cell death), IncuCyte ([3]; elapsed 13 h): 4557.19
Cytotox-Red uptake (cell death), IncuCyte ([3]; elapsed 13.5 h): 4775.06
Cytotox-Red uptake (cell death), IncuCyte ([3]; elapsed 14 h): 4760.06
Cytotox-Red uptake (cell death), IncuCyte ([3]; elapsed 14.5 h): 4770
Cytotox-Red uptake (cell death), IncuCyte ([3]; elapsed 15 h): 4767.69
Cytotox-Red uptake (cell death), IncuCyte ([3]; elapsed 16 h): 4884.75
Cytotox-Red uptake (cell death), IncuCyte ([3]; elapsed 17 h): 4901.56
Cytotox-Red uptake (cell death), IncuCyte ([3]; elapsed 18 h): 4950.62
Cytotox-Red uptake (cell death), IncuCyte ([3]; elapsed 19 h): 4959.75
Cytotox-Red uptake (cell death), IncuCyte ([3]; elapsed 19.5 h): 4920.31
NanoLuc luminescence, Blank corrected (470-80) ([4]; 62.5nM, 2h): 4980 and 5006 and 4972
NanoLuc luminescence, Blank corrected (470-80) ([4]; 62.5nM, 4h): 5208 and 3005 and 4773 and 4875
NanoLuc luminescence, Blank corrected (470-80) ([4]; 62.5nM, 6h): 2838 and 2892 and 3957
NanoLuc luminescence, Blank corrected (470-80) ([4]; 62.5nM, 8h): 2020 and 2221 and 2420
NanoLuc luminescence, Blank corrected (470-80) ([4]; 62.5nM, 10h): 1449 and 1207 and 1837
NanoLuc luminescence, Blank corrected (470-80) ([4]; 250nM, 2h): 1535 and 1072 and 1399
NanoLuc luminescence, Blank corrected (470-80) ([4]; 250nM, 4h): 1441 and 855 and 1118
NanoLuc luminescence, Blank corrected (470-80) ([4]; 250nM, 6h): 752 and 593 and 657 and 1043
NanoLuc luminescence, Blank corrected (470-80) ([4]; 250nM, 8h): 745 and 600 and 575
NanoLuc luminescence, Blank corrected (470-80) ([4]; 250nM, 10h): 292 and 341 and 527
NanoLuc luminescence, Blank corrected (470-80) ([4]; 500nM, 2h): 894 and 649 and 1055 and 784
NanoLuc luminescence, Blank corrected (470-80) ([4]; 500nM, 4h): 690 and 518 and 723
NanoLuc luminescence, Blank corrected (470-80) ([4]; 500nM, 6h): 437 and 546 and 398 and 460
NanoLuc luminescence, Blank corrected (470-80) ([4]; 500nM, 8h): 261 and 295 and 351
NanoLuc luminescence, Blank corrected (470-80) ([4]; 500nM, 10h): 255 and 239 and 173
Blank corrected Raw Data (470-80) ([4]; DMSO (control) co-treatment): 1248 and 1289 and 1195 and 929
Blank corrected Raw Data (470-80) ([4]; co-treatment with MG132 (10uM)): 3006 and 3126 and 2730 and 2907
